Target: HDAC4 (Homo sapiens, UniProt P56524)
Test: HDAC enzyme inhibition assay
Format: biochemical
Parameters: purchased BPS Bioscience 50004
Description: Bio-Rad) to Immobilon-FL PVDF membranes (Catalog# IPFL00005, Mill ipore Merck, Burlington, MA, USA) at 1.0 A for 30 min and treated with 5% milk-powder solution for 1 h at room temperature […]
Signaling Technology) antibody solutions in 1:1000 –1:8000 dilutions at 4 °C overnight. […]
Significance testing was performed with a one -way analysis […]
compared to a reference mean value.
2.7. HDAC Enzyme Inhibition Assay […]
In vitro inhibitory activities against HDAC4 were measured using a previously published protocol with slight modifications. For test compounds and controls, serial dilutions of the respective DMSO stock solution in DMSO were prepared, and 1.0 μL /well of this serial dilution were transferred […]
into OptiPlate-96 black microplates (PerkinElmer, Waltham, […], USA). A volume of 4 µL/well assay […]
BSA) was added. In the case of HDAC1, 2, and 6, a volume of 35 μL/well of the fluorogenic substrate […]
The total assay volume of 50 μL (max. 2 % DMSO) was incubated at 37 °C for 90 min. Subsequently, 50 μL /well of trypsin (0.4 mg/mL) in trypsin buffer (50 mM Tris−HCl, pH 8.0, 100 mM NaCl) was added, followed by additional 30 min of incubation at […]
OPTIMA microplate reader (BMG labtech, Ortenburg, Germany). The half maximal inhibitory concentration (IC50) was determined by plotting dose response curves and nonlinear regression with GraphPad Prism (GraphPad Software).
2.8. […]

Chain of HDAC4 (P56524 627-1084 limits assumed): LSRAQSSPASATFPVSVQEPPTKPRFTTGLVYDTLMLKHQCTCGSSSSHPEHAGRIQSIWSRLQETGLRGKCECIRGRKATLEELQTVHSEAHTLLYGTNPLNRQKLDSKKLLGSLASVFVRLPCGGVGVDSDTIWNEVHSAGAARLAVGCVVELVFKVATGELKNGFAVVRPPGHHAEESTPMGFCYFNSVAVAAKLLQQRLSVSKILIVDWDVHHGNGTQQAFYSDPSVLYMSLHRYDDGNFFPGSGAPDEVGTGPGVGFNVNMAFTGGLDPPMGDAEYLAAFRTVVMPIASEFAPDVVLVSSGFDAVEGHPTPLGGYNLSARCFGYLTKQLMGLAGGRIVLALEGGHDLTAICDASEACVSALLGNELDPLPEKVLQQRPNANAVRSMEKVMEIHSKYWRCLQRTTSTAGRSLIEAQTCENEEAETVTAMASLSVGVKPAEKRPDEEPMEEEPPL

Compound: O=C(CCCCCCNC(=O)c1ccc(N(C(=O)CCl)C(C(=O)NCc2ccccc2)c2ccc(Cl)c(Cl)c2)cc1)NO (centres unmarked) [Compound 2]
- IC50: 3.26 ± 0.08 µM

Compound: O=C(CCCCCCNC(=O)c1ccc(NC(=O)CCCCCCCCCCCN(C(=O)CCl)C(C(=O)NCc2ccccc2)c2ccc(Cl)c(Cl)c2)cc1)NO (centres unmarked) [Compound 1j]
- IC50: 12.4 ± 1.5 µM

From PMC12091851, “Replacing a Cereblon Ligand by a DDB1 and CUL4 Associated Factor 11 (DCAF11) Recruiter Converts a Selective Histone Deacetylase 6 PROTAC into a Pan‐Degrader” (Chemmedchem, 2025)
